# Measured values from the supplement of paper PMC10307832.
# Tests used:
# Assay in all cases: relative viability (nuclei count vs DMSO), 5 days (fraction); higher = more cells survive
# Ponatinib + Dasatinib = compound: Cc1ccc(C(=O)Nc2ccc(CN3CCN(C)CC3)c(C(F)(F)F)c2)cc1C#Cc1cnc2cccnn12 [Ponatinib] + Cc1nc(Nc2ncc(C(=O)Nc3c(C)cccc3Cl)s2)cc(N2CCN(CCO)CC2)n1 [Dasatinib] (partner 0.075 µM)
# Procedure, shortened: (§1)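 After 5 days of treatment, lung cancer cells in 1536-well plates were fixed and stained in a single step (final 0.05% Triton X-100, 1% formaldehyde, 1 ug/ml Hoechst) and their nuclei counted on 4× images. Treatment had been applied by pin tool the day after seeding as one drug alone or as a fixed anchor-drug dose with five library-drug doses (not always all listed) in √10 steps. Relative viability is the nuclei count of treated wells divided by that of vehicle wells, and values are medians of duplicate plates.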
# Pazopanib + Foretinib = compound: Cc1ccc(Nc2nccc(N(C)c3ccc4c(C)n(C)nc4c3)n2)cc1S(N)(=O)=O [Pazopanib] + COc1cc2c(Oc3ccc(NC(=O)C4(C(=O)Nc5ccc(F)cc5)CC4)cc3F)ccnc2cc1OCCCN1CCOCC1 [Foretinib] (partner 0.25 µM)
# Procedure, shortened: as §1
# Ponatinib + Bortezomib = compound: Cc1ccc(C(=O)Nc2ccc(CN3CCN(C)CC3)c(C(F)(F)F)c2)cc1C#Cc1cnc2cccnn12 [Ponatinib] + CC(C)C[C@H](NC(=O)[C@H](Cc1ccccc1)NC(=O)c1cnccn1)B(O)O [Bortezomib] (partner 0.002 µM)
# Procedure, shortened: as §1
# Pazopanib + Trametinib = compound: Cc1ccc(Nc2nccc(N(C)c3ccc4c(C)n(C)nc4c3)n2)cc1S(N)(=O)=O [Pazopanib] + CC(=O)Nc1cccc(-n2c(=O)n(C3CC3)c(=O)c3c(Nc4ccc(I)cc4F)n(C)c(=O)c(C)c32)c1 [Trametinib] (partner 0.02 µM)
# Procedure, shortened: as §1
Cell Line,relative viability (Ponatinib + Dasatinib; first compound 0.002 µM),relative viability (Ponatinib + Dasatinib; first compound 0.006325 µM),relative viability (Ponatinib + Dasatinib; first compound 0.06325 µM),relative viability (Ponatinib + Dasatinib; first compound 0.2 µM),relative viability (Pazopanib + Foretinib; first compound 0.01 µM),relative viability (Pazopanib + Foretinib; first compound 0.03162 µM),relative viability (Pazopanib + Foretinib; first compound 0.1 µM),relative viability (Pazopanib + Foretinib; first compound 0.3162 µM),relative viability (Pazopanib + Foretinib; first compound 1 µM),relative viability (Ponatinib + Bortezomib; first compound 0.002 µM),relative viability (Ponatinib + Bortezomib; first compound 0.006325 µM),relative viability (Ponatinib + Bortezomib; first compound 0.06325 µM),relative viability (Ponatinib + Bortezomib; first compound 0.2 µM),relative viability (Pazopanib + Trametinib; first compound 0.01 µM),relative viability (Pazopanib + Trametinib; first compound 0.03162 µM),relative viability (Pazopanib + Trametinib; first compound 0.1 µM),relative viability (Pazopanib + Trametinib; first compound 0.3162 µM),relative viability (Pazopanib + Trametinib; first compound 1 µM)
COR-L 105,0.314,0.41,0.344,0.341,0.926,0.87,1.15,1.04,1.18,0.819,0.787,1.01,0.999,0.468,0.406,0.438,0.427,0.58
SK-LU-1,0.19,0.178,0.172,0.137,0.872,0.988,0.884,0.851,0.809,1.01,1.01,0.949,0.757,0.42,0.499,0.516,0.54,0.54
LXF-289,0.26,0.275,0.26,0.195,1.06,1.06,1.08,0.99,0.996,0.946,0.996,1,0.98,0.691,0.675,0.717,0.71,0.706
PC-3 [JPC-3],0.99,0.981,1.12,0.917,1.05,1.01,1.12,1.06,0.995,0.826,0.812,0.961,0.815,–,0.686,0.73,0.835,0.65
NCI-H661,0.786,0.965,0.987,0.819,0.996,1.08,1.04,1,0.995,0.714,0.88,0.962,0.63,0.518,0.589,0.621,0.614,0.534
NCI-H1666,0.761,0.829,0.906,0.853,0.998,1.01,0.995,1.02,1.1,0.736,0.832,0.985,1.11,0.925,0.893,0.899,0.884,1
NCI-H2085,0.268,0.261,0.221,0.237,0.972,1.06,1.01,0.96,1.11,0.98,1.15,1.25,1.03,0.44,0.518,0.568,0.574,0.592
NCI-H1734,0.496,0.469,0.42,0.377,0.829,0.948,0.873,0.893,0.926,0.87,0.957,0.917,0.905,0.669,0.697,0.671,0.612,0.626
NCI-H2126,0.554,0.564,0.65,0.531,1.16,1.18,1.26,1.06,1.06,1.08,1.13,1.16,1.13,0.506,0.503,0.599,0.563,0.577
EMC-BAC-2,0.335,0.319,0.323,0.305,–,0.991,1.01,1.02,1.06,0.967,1.02,1.06,1.04,–,0.965,0.897,0.931,1.1
NCI-H1993,0.684,0.661,0.832,0.603,–,0.69,0.783,0.728,0.817,1.11,1.15,1.4,1.23,–,0.451,0.576,0.438,0.512
NCI-H596,0.505,0.61,0.479,0.373,–,0.723,0.9,0.815,0.84,0.88,0.959,0.905,0.829,0.798,1.02,0.808,0.814,0.915
NCI-H650,0.37,0.456,0.492,0.411,1.02,1.11,0.995,0.898,0.818,0.536,0.695,0.575,0.703,0.942,0.918,0.984,1.13,1.13
SW 1573,0.451,0.507,0.466,0.485,0.83,0.938,0.934,0.998,0.998,0.971,1.02,1.03,0.997,0.604,0.671,0.604,0.649,0.494
ChaGo-K-1,0.487,0.567,0.488,0.509,0.934,0.909,1.01,0.884,0.946,0.786,1.01,1.14,0.968,0.908,0.75,0.904,0.905,0.901
NCI-H1650,0.298,0.346,0.327,0.349,1.12,1.2,1.15,1.05,1.09,0.216,0.193,0.227,0.222,0.725,0.682,0.734,0.629,0.695
NCI-H2009,0.259,0.292,0.297,0.295,1.2,1.16,1.19,1.15,1.06,0.86,0.969,1.05,1,0.277,0.25,0.175,0.315,0.332
LOU-NH91,0.541,0.581,0.548,0.525,0.898,0.92,0.945,0.967,0.948,0.399,0.543,0.557,0.568,0.721,0.769,0.848,0.795,0.822
